Read-outs that look alike come from different tables or passages of the source.
Experiments:
[1] = target: T1, acetylcholinesterase (Homo sapiens, UniProt P22303); assay: Kinetic study of acetylcholinesterase inhibition (Lineweaver-Burk plots and replots); assay type: biochemical; settings: for type of acetylcholinesterase inhibition: Lineweaver-Burk plots
T1 construct: purchased Sigma-Aldrich (St. Louis, MO, USA)
Procedure: Lineweaver–Burk and Dixon plots were used for the determination of the type of inhibition and inhibition constants (Ki value) of these alkaloids. […] The Ki value was estimated from the replots of the slope of the individual Lineweaver–Burk plots versus the inhibitor concentrations (Figure 5B). […] The type of acetylcholinesterase inhibition and Ki value was determined for palmatine by the same method.

[2] = system: human skin fibroblasts (WS1 cell line); assay: MTT cell viability, skin fibroblasts WS1; assay type: cell-based
Procedure: (§1) The MTT assay, which measures the activity of mitochondrial metabolism, was used for the determination of the influence of alkaloid standards on cancer cell viability.
(§2) For the evaluation of the effect of Berberis species, extracts against normal human skin fibroblast cells (WS1) were used. Both cell lines were received from the American Type Culture Collection (ATCC; Manassas, VA, USA). A375 and WS1 cells were cultured in Dulbecco’s Modified Eagle’s Medium (DMEM) (Sigma Aldrich, St. Louis, MO, USA). The procedure used in investigations of cell viability was described previously. Inactivated fetal bovine serum, penicillin, and streptomycin were added to cells maintained in a CO2 atmosphere at 37 °C. The suspension of cells was applied to a 96-well plate and incubated for 24 h. Next, the medium was removed from the wells, and Berberis species extracts or alkaloid standards were added to the wells. After incubation, MTT working solution was added to each well, and the plate was again incubated for 3 h. Subsequently, an SDS solution was added, and the concentration of the dissolved formazan was measured (for details, see Section S3. Procedure for investigation of cell viability). For the calculation of IC50 values obtained for the plant extracts and alkaloid standards, the IC50 calculator (https://www.aatbio.com/tools/ic50-calculator, accessed on 16 January 2024) was used.
S1. […]

[3] = target: T1, acetylcholinesterase; settings: previously reported; cited from earlier work
[4] = ref PubChem; cited from earlier work
[5] = system: human melanoma cell line (A375); assay: MTT cell viability, melanoma cell line A375; assay type: cell-based; settings: 24 h incubation
Procedure: as §1, §2
S1. […]

[6] = target: T1, acetylcholinesterase; assay type: biochemical; settings: alkaloid standards; 15 min at 37 °C, pH 7.8
Procedure: (§3) All experiments were repeated three times.
S1. Samples preparation for determination of acetylcholinesterase inhibitory activity A stock solutions of reagents were prepared by dissolving of acetylcholinesterase at con-centrations 200 U/mL or 2 U/mL, acetylthiocholine iodide at concentration 0.0125 M and 5′- dithiobis-(2-nitrobenzoic acid) at concentration 0.00167 M in phosphate buffer at pH 7.8.
Samples for determination of acetylcholinesterase inhibitory activity were obtained by mixing of 50 µL of acetylthiocholine iodide, 50 µL of 5′-dithiobis-(2-nitrobenzoic acid), 50 µL of […]
as §3
All experiments were performed in triplicates.

[7] = target: T2, butyrylcholinesterase (Homo sapiens, UniProt P06276); assay: Butyrylcholinesterase inhibition, Ellman method with HPLC-DAD; assay type: biochemical; settings: alkaloid standards; 15 min at 37 °C, pH 7.8
T2 construct: purchased Sigma-Aldrich (St. Louis, MO, USA)

[8] = target: T2, butyrylcholinesterase; settings: cited from earlier work
[9] = target: T1, acetylcholinesterase; settings: cited from earlier work
[10] = target: T2, butyrylcholinesterase; settings: read-out: IC50 butyrylcholinesterase; alkaloids isolated from Berberis vulgaris root bark; cited from earlier work
[11] = system: leukemic (Jurkat, MOLT-4), colon (HT-29), cervix (HeLa), breast (MCF-7) cancer cells; settings: MOLT-4, HT-29, HeLa, read-out: IC50 values, proliferation and viability; cited from earlier work

T2 sequence (P06276 29-602): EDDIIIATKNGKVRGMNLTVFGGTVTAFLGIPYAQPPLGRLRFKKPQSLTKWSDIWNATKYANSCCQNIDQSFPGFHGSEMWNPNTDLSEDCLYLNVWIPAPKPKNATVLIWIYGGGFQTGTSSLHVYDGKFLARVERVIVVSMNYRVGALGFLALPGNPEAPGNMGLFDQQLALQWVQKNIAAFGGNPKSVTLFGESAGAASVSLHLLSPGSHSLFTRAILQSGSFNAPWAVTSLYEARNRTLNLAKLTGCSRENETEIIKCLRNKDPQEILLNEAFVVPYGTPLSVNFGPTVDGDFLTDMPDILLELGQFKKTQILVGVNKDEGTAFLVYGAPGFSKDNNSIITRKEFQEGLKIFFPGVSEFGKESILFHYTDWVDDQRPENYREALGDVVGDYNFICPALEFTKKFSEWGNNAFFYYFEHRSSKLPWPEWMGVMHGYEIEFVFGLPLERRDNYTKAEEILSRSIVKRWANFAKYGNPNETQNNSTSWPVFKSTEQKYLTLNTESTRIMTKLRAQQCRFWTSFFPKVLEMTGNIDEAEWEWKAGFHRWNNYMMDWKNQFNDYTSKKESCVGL
T1 sequence (P22303 32-614, species assumed): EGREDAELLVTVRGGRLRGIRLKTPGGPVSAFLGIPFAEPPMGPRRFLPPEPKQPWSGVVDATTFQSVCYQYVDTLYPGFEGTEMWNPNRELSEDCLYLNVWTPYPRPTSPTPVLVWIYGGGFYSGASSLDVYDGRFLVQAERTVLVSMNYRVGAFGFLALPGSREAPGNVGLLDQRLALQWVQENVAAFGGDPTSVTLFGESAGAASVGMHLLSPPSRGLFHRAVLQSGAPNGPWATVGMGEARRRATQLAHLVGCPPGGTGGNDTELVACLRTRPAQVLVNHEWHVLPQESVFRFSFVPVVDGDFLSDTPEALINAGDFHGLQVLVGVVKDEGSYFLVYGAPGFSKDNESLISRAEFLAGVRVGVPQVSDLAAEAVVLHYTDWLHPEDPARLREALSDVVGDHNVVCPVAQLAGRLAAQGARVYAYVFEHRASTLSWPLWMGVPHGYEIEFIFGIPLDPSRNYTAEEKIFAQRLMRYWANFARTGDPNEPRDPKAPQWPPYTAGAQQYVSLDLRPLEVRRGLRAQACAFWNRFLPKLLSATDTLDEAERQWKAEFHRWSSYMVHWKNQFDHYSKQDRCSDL

Compound	Hydrogen bond acceptor count [4]	Hydrogen bond donor count [4]	Log P [4]	Polar surface area [4] [Å²]	also measured
COc1ccc2cc3[n+](cc2c1OC)CCc1cc2c(cc1-3)OCO2 [Berberine, berberine]	4	0	3.6	40.8	type of acetylcholinesterase inhibition [1]: noncompetitive; IC50 ([2]; Homo sapiens, WS1, 24 h, read-out: IC50 WS1): 95.3 µg/mL; mode of acetylcholinesterase inhibition [3]: non-competitive
COc1ccc2c(c[n+](C)c3c4cc5c(cc4ccc23)OCO5)c1OC [Chelerythrine, chelerythrine]	4	0	4.6	40.8	
N.N.[Cl][Pt][Cl] [Cisplatin, cisplatin]					IC50 A375 [5]: 23.8 µg/mL; IC50 WS1 ([2]; human skin fibroblast cell line WS1, MTT, 24 h incubation): 44.07 µg/mL
COc1cc2c(cc1OC)-c1cc3ccc(OC)c(OC)c3c[n+]1CC2 [Palmatine, palmatine]	4	0	3.7	40.8	IC50 [6]: 29.2 ± 1.59 µM; IC50 Values Acetylcholinesterase [6]: 10.27 µg/mL; IC50 [7]: 189 ± 42.5 µM; IC50 Values Butyrylcholinesterase [7]: 66.74 µg/mL; type of acetylcholinesterase inhibition [1]: mixed-type; Ki ([1]; replot of Lineweaver-Burk slopes vs inhibitor concentration, substrate acetylthiocholine iodide): 17 µM; IC50 butyrylcholinesterase [8]: 116.7 µg/mL; IC50 acetylcholinesterase [9]: 7.4 µg/mL; mode of acetylcholinesterase inhibition [3]: mixed mode
CN1CCc2cc3c(cc2C(=O)Cc2ccc4c(c2C1)OCO4)OCO3 [Protopine, protopine]	6	0	2.8	57.2	
C[n+]1cc2c3c(ccc2c2ccc4cc5c(cc4c21)OCO5)OCO3 [Sanguinarine, sanguinarine]	4	0	4.4	40.8	
COc1cc2c3cc1Oc1c(O)c(OC)cc4c1[C@H](Cc1ccc(cc1)Oc1cc(ccc1O)C[C@H]3N(C)CC2)N(C)CC4 [aromoline]					IC50 [10]: 0.82 µM
Bersavine					IC50 [11]: 8.1 to 11 µM

— PMC10933966, “In Vitro and In Silico of Cholinesterases Inhibition and In Vitro and In Vivo Anti-Melanoma Activity Investigations of Extracts Obtained from Selected Berberis Species” (Molecules, 2024)
